Assay results as given in BigSolDB 2.1.

COCCOC(=O)C1=C(C)NC(C)=C(C(=O)OC(C)C)C1c1cccc([N+](=O)[O-])c1 (centres undefined)
solubility (mole fraction)
Conditions	278.15 K	283.15 K	288.15 K	293.15 K	298.15 K	303.15 K	308.15 K	313.15 K	318.15 K
in THF	0.0141	0.016	0.0181	0.0203	0.0229	0.0259	0.0291	0.0324	0.0366
in acetone	0.012	0.0136	0.0154	0.0171	0.0193	0.0217	0.0241	0.027	0.0295
in acetonitrile	0.00161	0.00191	0.00225	0.00267	0.00311	0.00365	0.00437	0.00503	0.00587
in cyclohexanone	0.0145	0.0164	0.0184	0.021	0.0239	0.0266	0.0297	0.0334	0.0375
in ethanol	0.014	0.0158	0.0176	0.0198	0.0221	0.0247	0.0272	0.0303	0.034
in ethyl acetate	0.00127	0.00145	0.0017	0.00192	0.00221	0.00248	0.0028	0.0032	0.00364
in ethyl formate	0.00152	0.0017	0.00192	0.00218	0.00247	0.00275	0.00305	0.00341	0.00381
in isobutanol	0.00706	0.00811	0.00923	0.0107	0.0122	0.0137	0.0156	0.0179	0.0201
in isopentanol	0.00609	0.00711	0.00815	0.00953	0.011	0.0126	0.0142	0.0166	0.0188
in isopropanol	0.0117	0.0132	0.0147	0.0163	0.0183	0.0204	0.0225	0.0249	0.0278
in methanol	0.0157	0.0178	0.0201	0.0229	0.0259	0.0289	0.0327	0.0364	0.0411
in methyl acetate	0.00456	0.00506	0.00573	0.00647	0.00718	0.00813	0.00898	0.00997	0.0112
in n-butanol	0.0106	0.0117	0.013	0.0145	0.0161	0.0177	0.0195	0.0217	0.0237
in n-pentanol	0.00802	0.00919	0.0103	0.0116	0.0131	0.0145	0.0162	0.018	0.0203
in n-propanol	0.011	0.0123	0.0139	0.0155	0.0173	0.0195	0.0216	0.0241	0.0269
in sec-butanol	0.00977	0.0111	0.0122	0.0134	0.0149	0.0167	0.0181	0.0198	0.022
